Laboratory results as given in publication PMC3252747 (Bioorganic & medicinal chemistry letters, 2009).

Molecular target: cloned h5-HT2A receptor (Homo sapiens, UniProt P28223)
Assay: 5-HT2A competitive radioligand binding assay
Conditions: ratio of H1 Ki to 5-HT2A Ki

Chain of cloned h5-HT2A receptor (P28223 whole entry): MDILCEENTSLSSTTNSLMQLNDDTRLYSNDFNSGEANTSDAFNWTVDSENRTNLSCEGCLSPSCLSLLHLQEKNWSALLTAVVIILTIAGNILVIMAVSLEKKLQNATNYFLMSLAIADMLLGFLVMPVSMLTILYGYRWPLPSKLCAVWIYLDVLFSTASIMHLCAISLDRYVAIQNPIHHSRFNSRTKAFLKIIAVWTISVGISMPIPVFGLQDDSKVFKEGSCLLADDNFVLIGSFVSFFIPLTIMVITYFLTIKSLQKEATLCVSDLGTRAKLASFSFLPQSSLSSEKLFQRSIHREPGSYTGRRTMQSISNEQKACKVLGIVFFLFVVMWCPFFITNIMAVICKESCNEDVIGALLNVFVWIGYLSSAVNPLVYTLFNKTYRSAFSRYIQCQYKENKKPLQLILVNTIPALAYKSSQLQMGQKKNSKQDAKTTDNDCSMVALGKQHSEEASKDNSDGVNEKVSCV

COc1ccc2c3c(ccc2c1)Cc1ccccc1C3CN (stereo not shown) [Compound 2b, (7,12-dihydrotetraphene-3-methoxy-12-yl)methanamine]
selectivity for 5-HT2A over the H1 receptor: 100 fold
